The source of these data is patent US20260209180A1, “PROTEASE INHIBITORS FOR TREATING OR PREVENTING CORONAVIRUS INFECTION” (Merck Sharp & Dohme LLC, priority 2023, published 2026).

This test has as its target SARS2 coronavirus 3CL protease (Severe acute respiratory syndrome coronavirus 2, UniProt P0DTD1). As to the kind of experiment: SARS2 Coronavirus 3CL Protease Assay (FRET). Type of test: biochemical. Particulars: 5 nM protease pre-incubated with compound 30 minutes; 15 uM peptide substrate; 4 h room temperature; read-out: FRET Potency (nM); IC50 values in the SARS2 3CLPro FRET assay. On the procedure:
The enzymatic activity of SARS2 coronavirus 3CL protease was determined in a FRET (fluorescence resonance energy transfer)-based assay measuring the cleavage of a peptide substrate by recombinantly expressed and purified enzyme. Cleavage of the peptide SEQ ID NO: 1 (CPC Scientific) by SARS2 3CL protease was measured in reaction buffer (50 mM Hepes pH 7.5, 0.01% Triton X-100, 0.01% BSA, 2 mM DTT). […] Room temperature reactions (4 h) were quenched by addition of a high dose of inhibitor and read on an appropriate plate reader (excitation wavelength=495 nm, emission wavelength=520 nm). Data were analyzed by a standard 4 parameter fit to determine IC50 values.
For the compound `CC(F)(F)CC[C@H](NC(=O)c1cc(C(F)(F)F)cnc1NC(=O)c1cccc(C(F)(F)F)c1)C(=O)C(=O)NC1CC1` [Example 39, N-[(1S)-1-[2-(cyclopropylamino)-2-oxo-acetyl]-4,4-difluoro-pentyl]-5-(trifluoromethyl)-2-[[3-(trifluoromethyl)benzoyl]amino]pyridine-3-carboxamide], the IC50 was determined as 40.9 nM.
The figure for `CC(F)(F)CC[C@H](NC(=O)c1cc(F)cnc1NC(=O)c1cccc(F)c1)C(=O)C(=O)NC1CC1` [Example 40, N-[(1S)-1-[2-(cyclopropylamino)-2-oxo-acetyl]-4,4-difluoro-pentyl]-5-fluoro-2-[(3-fluorobenzoyl)amino]pyridine-3-carboxamide] is 41.6 nM.
Regarding `CNC(=O)C(=O)[C@H](CCC(C)(F)F)NC(=O)c1cc(C#N)ccc1NC(=O)c1cccc(F)c1` [Example 41, 5-cyano-N-[(1S)-4,4-difluoro-1-[2-(methylamino)-2-oxo-acetyl]pentyl]-2-[(3-fluorobenzoyl)amino]benzamide], the IC50 worked out at 45.3 nM.
With `CNC(=O)C(=O)[C@H](CCC(C)(F)F)NC(=O)c1cc(F)ccc1NC(=O)C1(C(F)(F)F)CC1` [Example 42, N-[(1S)-4,4-difluoro-1-[2-(methylamino)-2-oxo-acetyl]pentyl]-5-fluoro-2-[[1-(trifluoromethyl)cyclopropane-carbonyl]amino]benzamide], the IC50 stood at 47 nM.
Then `CNC(=O)C(=O)[C@H](CCC(C)(F)F)NC(=O)c1cc(F)cnc1NC(=O)C(C)(C)C` [Example 43, N-[(1S)-4,4-difluoro-1-[2-(methylamino)-2-oxo-acetyl]pentyl]-2-(2,2-dimethylpropanoylamino)-5-fluoro-pyridine-3-carboxamide], with 49.6 nM; and `CC(F)(F)CC[C@H](NC(=O)c1cc(Cl)cnc1NC(=O)C1(C(F)(F)F)CC1)C(=O)C(=O)NC1CC1` [Example 44, 5-chloro-N-[(1S)-1-[2-(cyclopropylamino)-2-oxo-acetyl]-4,4-difluoro-pentyl]-2-[[1-(trifluoromethyl)cyclopropane-carbonyl]amino]pyridine-3-carboxamide], with 50.4 nM.
Then `Cc1cnc(NC(=O)c2cccc(C(F)(F)F)c2)c(C(=O)N[C@@H](CCC(C)(F)F)C(=O)C(=O)NC2CC2)c1` [Example 45, N-[(1S)-1-[2-(cyclopropylamino)-2-oxo-acetyl]-4,4-difluoro-pentyl]-5-methyl-2-[[3-(trifluoromethyl)benzoyl]amino]pyridine-3-carboxamide], with 76.2 nM; and `CC(F)(F)CC[C@H](NC(=O)c1cc(F)cnc1NC(=O)C(C)(C)C)C(=O)C(=O)NC1CC1` [Example 46, N-[(1S)-1-[2-(cyclopropylamino)-2-oxo-acetyl]-4,4-difluoro-pentyl]-2-(2,2-dimethylpropanoylamino)-5-fluoro-pyridine-3-carboxamide], with 94.8 nM.
As to `CNC(=O)C(=O)[C@H](CCC(C)(F)F)NC(=O)c1cc(Cl)ccc1NC(=O)C1CC1C(F)(F)F` (stereo partly drawn) [Example 47, 5-chloro-N-[(1S)-4,4-difluoro-1-[2-(methylamino)-2-oxo-acetyl]pentyl]-2-[[2-(trifluoromethyl)cyclopropane-carbonyl]amino]benzamide], the IC50 was determined as 20.5 nM.
With `CNC(=O)C(=O)[C@H](CCC(C)(F)F)NC(=O)c1cc(Cl)ccc1NC(=O)C1CC1C(F)(F)F` (stereo partly drawn) [Example 48, 5-chloro-N-[(1S)-4,4-difluoro-1-[2-(methylamino)-2-oxo-acetyl]pentyl]-2-[[2-(trifluoromethyl)cyclopropane-carbonyl]amino]benzamide], the IC50 was 11.3 nM.
The figure for `CNC(=O)C(=O)[C@H](CCC(C)(F)F)NC(=O)c1cc(Cl)ccc1NC(=O)OC` [Example 49, methyl N-[4-chloro-2-[[(1S)-4,4-difluoro-1-[2-(methylamino)-2-oxo-acetyl]pentyl]carbamoyl]phenyl]carbamate] is 7.1 nM; for `CNC(=O)C(=O)[C@H](CCC(C)(F)F)NC(=O)c1cc(Cl)ccc1NC(=O)C1CN(C)C1` [Example 50, N-[4-chloro-2-[[(1S)-4,4-difluoro-1-[2-(methylamino)-2-oxo-acetyl]pentyl]carbamoyl]phenyl]-1-methyl-azetidine-3-carboxamide] it is 21.8 nM; for `CNC(=O)C(=O)[C@H](CCC(C)(F)F)NC(=O)c1cc(Cl)ccc1NC(=O)c1cncc(C#N)c1` [Example 51, N-[4-chloro-2-[[(1S)-4,4-difluoro-1-[2-(methylamino)-2-oxo-acetyl]pentyl]carbamoyl]phenyl]-5-cyano-pyridine-3-carboxamide] it is 15.1 nM.
In the case of `CNC(=O)C(=O)[C@H](CCC(C)(F)F)NC(=O)c1cc(Cl)ccc1NC(=O)c1cccnc1` [Example 52], the IC50 came to 15.6 nM.
Then `CC(F)(F)CC[C@H](NC(=O)c1cc(Cl)ccc1NC(=O)CCC(F)(F)F)C(=O)C(N)=O` [Example 53, 5-chloro-N-[(1S)-4,4-difluoro-1-oxamoyl-pentyl]-2-(4,4,4-trifluorobutanoylamino) benzamide], with 97.5 nM; and `CNC(=O)C(=O)[C@H](CCC(C)(F)F)NC(=O)c1cc(Cl)cnc1NC(=O)C1CC(F)(F)C1` [Example 54, 5-chloro-2-[(3,3-difluorocyclobutanecarbonyl)amino]-N-[(1S)-4,4-difluoro-1-[2-(methylamino)-2-oxo-acetyl]pentyl]pyridine-3-carboxamide], with 7.5 nM; and `CNC(=O)C(=O)[C@H](CCC(C)(F)F)NC(=O)c1cc(Cl)ncc1NC(=O)OC` [Example 55, methyl N-[6-chloro-4-[[(1S)-4,4-difluoro-1-[2-(methylamino)-2-oxo-acetyl]pentyl]carbamoyl]-3-pyridyl]carbamate], with 93.8 nM.
The figure for `CNC(=O)C(=O)[C@H](CCC(C)(F)F)NC(=O)c1cc(Cl)cnc1NC(=O)OC` [Example 56, methyl N-[5-chloro-3-[[(1S)-4,4-difluoro-1-[2-(methylamino)-2-oxo-acetyl]pentyl]carbamoyl]-2-pyridyl]carbamate] is 4.2 nM; for `CNC(=O)C(=O)[C@H](CCC(C)(F)F)NC(=O)c1cc(Cl)ccc1NC(=O)N(C)CC1CCC(F)(F)CC1` [Example 57, (S)-5-chloro-N-(6,6-difluoro-1-(methylamino)-1,2-dioxoheptan-3-yl)-2-(3-((4,4-difluorocyclohexyl)methyl)-3-methylureido)benzamide] it is 6 nM; for `CNC(=O)C(=O)[C@H](CCC(C)(F)F)NC(=O)c1cc(Cl)ccc1NC(=O)C(C)C` [Example 58, 5-chloro-N-[(1S)-4,4-difluoro-1-[2-(methylamino)-2-oxo-acetyl]pentyl]-2-(2-methylpropanoylamino) benzamide] it is 6.2 nM.
Turning to `CNC(=O)C(=O)[C@H](CCC(C)(F)F)NC(=O)c1cc(Cl)ccc1NC(=O)OC1CC1` [Example 59, cyclopropyl N-[4-chloro-2-[[(1S)-4,4-difluoro-1-[2-(mcthylamino)-2-oxo-acetyl]pentyl]carbamoyl]phenyl]carbamate], the IC50 was determined as 13.1 nM.
The figure for `CNC(=O)C(=O)[C@H](CCC(C)(F)F)NC(=O)c1cc(Cl)ccc1NC(=O)[C@H](C)OC` [Example 60, 5-chloro-N-[(1S)-4,4-difluoro-1-[2-(methylamino)-2-oxo-acetyl]pentyl]-2-[[(2S)-2-methoxypropanoyl]amino] benzamide] is 9.4 nM.
